Test results: patent publication US20130281512A1, “AGENTS FOR TREATING DISORDERS INVOLVING MODULATION OF RYANODINE RECEPTORS” (LES LABORATOIRES SERVIER, priority 2012, published 2013)

Tested on: ischemia-reperfusion induced heart failure
Test: Model of chronic post-ischemic heart failure in rat (ischemia-reperfusion injury)
Format: in vivo
Conditions: 5 mg/kg/d in drinking water, 3 months
Method: Chronic heart failure was induced in male wistar rats (224-240 g, 10-11 weeks of age) by ischemia-reperfusion (I/R) injury. For I/R protocol, the left anterior descending (LAD) coronary artery was occluded for 1 h. Drug treatment (5 mg/kg/d or 10 mg/kg/d in drinking water) was initiated 1 week after reperfusion and was maintained for a 3 month study period. […] Cardiac specimens were also analyzed to assess hypertrophy and collagen content. The study design is depicted in FIG. 3. Experiments were performed in a blinded manner. On parameters measured over time, comparison of Sham versus Vehicle and comparison of drug treatments are analyzed by 2 way ANOVAs with repeated measures. On parameters measured at sacrifice and morphometry, comparisons of Sham versus Vehicle are analyzed by t-test and comparisons of drug treatments by 1-way ANOVA followed by Dunnett test.

Compound: COc1ccc2c(c1)CN(CC(=O)O)CCS2 [A]
- systolic and diastolic cardiac function: failed to improve
